16 compounds from patent US5378706A, “Fused-thiazole derivatives active on the cholinergic system, and pharmaceutical compositions containing same” (Sanofi, priority 1987, dated 1995) can be followed below.

Each structure is given as a SMILES string. Where only a bound is given, the exact number is not on record here.

Data set [1] has as its system M1 central muscarinic cholinergic receptors. Put plainly: Antagonism of rotations induced by intrastriatal injection of pirenzepine in mice. To be noted: for Pirenzepine antagonism ED50 i.p.: 15 minutes before intrastriatal pirenzepine 1 μg; for Pirenzepine antagonism ED50 p.o.: 30 minutes before intrastriatal pirenzepine 1 μg. Type of data set: in vivo, mice (Swiss, CD 1). On the procedure: Pirenzepine (PZ) is a specific antagonist of the M1 central muscarinic cholinergic receptors. The intrastriatal injection of PZ into mice induces rotatory behavoir. The antagonism of this behavoir by the products according to the invention was studied.
The products according to the invention are administered either intraperitoneally (i.p.) or orally (p.o.) after solubilization in distilled water or suspension in a 5% solution of gum arabic. The control animals receive the pure solvent under the same conditions.
The animals used are female mice (Swiss, CD 1, Charles River, France) with a body weight of between 25 and 30 grams.
The pirenzepine is dissolved in a phosphate buffer and the pH of the solution is 6.
The test products or their solvents are administered in a volume of 0.4 ml per 20 g of body weight, either by i.p. injection or orally via an esophageal tube.
The number of contralateral rotations (rotations in the opposite direction to the side injected) was counted for three 2-minute periods after injection of the pirenzepine: 2nd to 4th, 8th to 10th and 13th to 15th minutes. Each treatment consists of 3 to 4 doses and 10 animals per dose. The total number of rotations and the percentage antagonism with respect to the control group are calculated for each treatment.

A short description of data set [2]: Acute toxicity, 24 hours mortality after i.p. administration to mice. Particulars: mouse, in vivo, ip, female mice, 20 g. As to the method: Finally, the acute toxicity was determined for various products according to the invention. The products were administered intraperitoneally in increasing doses to groups of 10 female mice (Swiss, CD 1, Charles River, France) with a body weight of 20 g.

Data set [3] has as its target T1, M1 -type muscarinic cholinergic receptor (Rattus norvegicus, UniProt P08482).
T1 sequence (P08482 1-460): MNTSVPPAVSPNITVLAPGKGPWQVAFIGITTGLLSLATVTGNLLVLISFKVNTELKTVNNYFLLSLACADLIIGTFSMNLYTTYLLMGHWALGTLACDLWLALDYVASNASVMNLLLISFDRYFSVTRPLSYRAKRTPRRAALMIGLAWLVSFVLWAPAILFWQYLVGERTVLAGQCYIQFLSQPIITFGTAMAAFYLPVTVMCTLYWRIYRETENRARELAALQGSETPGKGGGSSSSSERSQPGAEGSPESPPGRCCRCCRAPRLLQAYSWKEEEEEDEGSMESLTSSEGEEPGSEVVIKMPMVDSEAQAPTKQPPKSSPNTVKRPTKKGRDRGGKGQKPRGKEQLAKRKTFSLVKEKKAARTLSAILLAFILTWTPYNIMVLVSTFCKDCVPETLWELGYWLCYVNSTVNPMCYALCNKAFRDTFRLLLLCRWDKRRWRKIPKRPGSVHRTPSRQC
Put plainly: biochemical. It counts as binding. To be noted: for IC50: rat hippocampus homogenate, 3H-PZ 1 nM, 2 hours at 4° C., pH 7.40, read-out: IC50 3H-PZ (M1); for ratio R of the IC50 values for the M1 and M2 receptors: selectivity, values correspond to IC50 M2 / IC50 M1.
Method: The interaction of the molecules with the M1 -type muscarinic receptors was studied by in vitro measurement, on a rat hippocampus homogenate, of the displacement of tritiated pirenzepine from its specific binding sites. Aliquots (10 μl) of a 5% (w/v) rat hippocampus homogenate in an Na2 HPO4 buffer (50 mM, pH 7.40) are incubated for 2 hours at 4° C. in the presence of ^3 H-PZ (76 Ci/mmol; final concentration 1 nM) and increasing concentrations of the test product. The final volume is 2 ml. The reaction is stopped by centrifugation for 10 minutes at 50,000×g. After decantation and washing of the residues, the bound radioactivity is counted by liquid scintillation. The non-specific binding is determined in the presence of 10 μM atropine sulfate.

Data set [4] deals with T2, M2 -type muscarinic cholinergic receptor (Cavia porcellus, UniProt H0VRN8).
T2 construct: on a smooth guinea-pig ileum muscle homogenate; from tissue; host or cells: guinea-pig ileum smooth muscle homogenate
T2 sequence (H0VRN8 1-466): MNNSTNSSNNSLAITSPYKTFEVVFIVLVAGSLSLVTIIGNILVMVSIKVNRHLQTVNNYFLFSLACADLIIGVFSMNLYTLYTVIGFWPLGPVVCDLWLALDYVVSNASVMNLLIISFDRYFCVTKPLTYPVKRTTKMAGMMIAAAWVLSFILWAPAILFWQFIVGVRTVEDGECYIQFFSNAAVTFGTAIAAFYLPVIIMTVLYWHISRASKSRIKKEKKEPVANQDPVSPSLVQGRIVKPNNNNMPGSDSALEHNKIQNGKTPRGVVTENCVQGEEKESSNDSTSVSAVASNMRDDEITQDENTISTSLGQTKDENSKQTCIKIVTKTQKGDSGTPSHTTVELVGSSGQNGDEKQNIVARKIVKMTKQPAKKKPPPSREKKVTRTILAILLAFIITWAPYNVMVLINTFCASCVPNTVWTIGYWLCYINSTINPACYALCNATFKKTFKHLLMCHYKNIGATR
Put plainly: Affinity for the M2-type muscarinic cholinergic receptor, displacement of tritiated N-methylscopolamine (3H-NMS) on smooth guinea-pig ileum muscle homogenate. It counts as binding. Particulars: guinea-pig ileum smooth muscle homogenate, 3H-NMS 0.3 nM, 20 minutes at 30° C., pH 7.5; read-out: IC50 3H-NMS (M2). On the procedure:
The M1 -type receptors are concentrated in certain regions of the brain, such as the hippocampus, the cerebral cortex and the striatum, and also in the sympathetic ganglia. These binding sites can be selectively labeled with tritiated pirenzepine (^3 H-PZ). The M2 -type receptors predominate in the heart and the ileum and can be labeled with tritiated N-methyl-scopolamine (^3 H-NMS). The selectivity of the products of the invention with respect to the M1 and M2 sites was determined by studying their in vitro interaction with ^3 H-PZ and ^3 H-NMS firmly bound with a high affinity to rat hippocampus membranes and smooth guinea-pig ileum muscle, respectively.
The interaction with the M2 -type muscarinic receptors was studied by in vitro measurement, on a smooth guinea-pig ileum muscle homogenate, of the displacement of tritiated N-methylscopolamine from its specific binding sites. […] The final volume is 1 ml. The reaction is stopped by centrifugation for 5 minutes at 15,000×g. The non-specific binding is determined in the presence of 10 mM atropine sulfate.
The IC50 for ^3 H-PZ displacement represents the affinity for the M1 receptor; the IC50 for ^3 H-NMS displacement represents the affinity for the M2 receptor.

What is called LD50 is the dose expected to kill half of the subjects tested. High values mean lower toxicity, low ones greater toxicity. In the case of `c1ccc(-c2csc(NCCN3CCOCC3)n2)cc1` [SR 44244 A], in data set [1], the “Pirenzepine antagonism ED50 i.p.” value was 8 mg/kg and the “Pirenzepine antagonism ED50 p.o.” value is listed as 20 mg/kg. In addition, the LD50 at 24 h in data set [2] stood at 250 mg/kg.
On to `Cl.Cl.c1ccc2c(c1)CCc1sc(NCCN3CCOCC3)nc1-2` [SR 44273 A, 2-(2-Morpholinoethylamino)-4,5-dihydronaphtho[1,2-d]thiazole dihydrochloride], for which the LD50 at 24 h in data set [2] is above 100 mg/kg.
As usually defined, the IC50 is the concentration that gives 50% inhibition. For the compound `c1ccc(-c2csc(NCCCN3CCOCC3)n2)cc1` [SR 44284 A], in data set [1], the “Pirenzepine antagonism ED50 i.p.” value came to 8 mg/kg. The compound further came in with a 50% lethal dose (LD50) at 24 h in data set [2] of 450 mg/kg. Moreover, in data set [3], the IC50 amounted to 8 µM; the “ratio R of the IC50 values for the M1 and M2 receptors” value (shortened to “ratio R of the IC50 values”) is given as 5. The concentration for half-maximal inhibition (IC50) in data set [4] was found to be 40 µM.
With `CCN(CC)CCNc1nc(-c2ccccc2)cs1` [SR 44286 A], in data set [1], the “Pirenzepine antagonism ED50 i.p.” value is recorded as 3 mg/kg and the “Pirenzepine antagonism ED50 p.o.” value was 10 mg/kg. The compound further returned a median lethal dose (LD50) at 24 h in data set [2] of 200 mg/kg. Besides, in data set [3], the 50% inhibitory concentration (IC50) was 6 µM; the “ratio R of the IC50 values” value is on record as 16. In addition, the IC50 in data set [4] was determined as 100 µM.
For the compound `CN(C)CCCNc1nc(-c2ccccc2)cs1` [SR 44345 A], in data set [1], the “Pirenzepine antagonism ED50 i.p.” value came to 0.5 mg/kg and the “Pirenzepine antagonism ED50 p.o.” value is given as 1 mg/kg. This compound displayed a median lethal dose (LD50) at 24 h in data set [2] of 200 mg/kg. In addition, in data set [3], the IC50 turned out to be 1 µM; the “ratio R of the IC50 values” value is reported as 70. Besides, the concentration for half-maximal inhibition (IC50) in data set [4] stood at 70 µM.
Regarding `CCN(CC)CCCNc1nc(-c2c(C)cc(C)cc2C)cs1` [SR 44347 A], in data set [1], the “Pirenzepine antagonism ED50 i.p.” value amounted to 0.03 mg/kg and the “Pirenzepine antagonism ED50 p.o.” value was 0.20 mg/kg. The compound further registered a median lethal dose (LD50) at 24 h in data set [2] of 60 mg/kg. In addition, in data set [3], the half-maximal inhibitory concentration (IC50) stood at 0.35 µM; the “ratio R of the IC50 values” value is 37. Also, the 50% inhibitory concentration (IC50) in data set [4] came to 13 µM.
With `CCN(CC)CCNc1nc(-c2c(C)cc(C)cc2C)cs1` [SR 44372 A], in data set [1], the “Pirenzepine antagonism ED50 i.p.” value was determined as 1 mg/kg and the “Pirenzepine antagonism ED50 p.o.” value amounted to 3 mg/kg. In data set [2], this compound displayed a median lethal dose (LD50) at 24 h of 75 mg/kg. In addition, in data set [3], the 50% inhibitory concentration (IC50) is 0.12 µM; the “ratio R of the IC50 values” value is reported as 41. Also, the IC50 in data set [4] is 5 µM.
Turning to `CCN(CC)CCCNc1nc(C)c(-c2ccccc2)s1` [SR 44373 A], in data set [1], the “Pirenzepine antagonism ED50 i.p.” value was determined as 0.3 mg/kg and the “Pirenzepine antagonism ED50 p.o.” value turned out to be 1 mg/kg. This compound also returned a 50% lethal dose (LD50) at 24 h in data set [2] of 75 mg/kg. Besides, in data set [3], the IC50 is 0.7 µM; the “ratio R of the IC50 values” value is given as 21. Further, the IC50 in data set [4] is 15 µM.
Consider `CCN(CC)CCCNc1nc(-c2ccccc2)cs1` [SR 44374 A], for which the “Pirenzepine antagonism ED50 i.p.” value in data set [1] is 3 mg/kg. Also, the LD50 at 24 h in data set [2] was 150 mg/kg. Besides, in data set [3], the IC50 was 0.4 µM; the “ratio R of the IC50 values” value is on record as 20. In addition, the IC50 in data set [4] was determined as 8 µM.
With `Cc1cc(C)c(-c2csc(NCCCN3CCN(C)CC3)n2)c(C)c1` [SR 44915 A], the “Pirenzepine antagonism ED50 p.o.” value in data set [1] came to 3 mg/kg. Further, in data set [3], the half-inhibitory concentration (IC50) was found to be 0.4 µM; the “ratio R of the IC50 values” value is recorded as 100. For the same compound, the IC50 in data set [4] came out at 40 µM.
Consider `Cc1cc(C)c(-c2csc(NCCCN3CCCC3)n2)c(C)c1` [SR 44964 A], for which the “Pirenzepine antagonism ED50 p.o.” value in data set [1] is on record as 3 mg/kg. Further, in data set [3], the IC50 stood at 0.9 µM; the “ratio R of the IC50 values” value was 31. Also, the IC50 in data set [4] came to 28 µM.
In the case of `CCN1CCCC(Nc2nc(-c3c(C)cc(C)cc3C)cs2)C1` (stereo not drawn) [SR 44965 A], the “Pirenzepine antagonism ED50 p.o.” value in data set [1] was found to be 3 mg/kg. Further, in data set [3], the concentration for half-maximal inhibition (IC50) came out at 1.2 µM; the “ratio R of the IC50 values” value amounted to 50. Besides, in data set [4], the IC50 is 60 µM.
In the same order, the values of `Cc1ccccc1-c1csc(NCCCN(C)C)n1` [SR 45001 A] are 3 mg/kg, 2.6 µM, 11 and 30 µM.
As to `CN(C)CCCNc1nc(-c2ccccc2)c(-c2ccccc2)s1` [SR 45015 A], the “Pirenzepine antagonism ED50 p.o.” value in data set [1] is recorded as 0.70 mg/kg. For the same compound, in data set [3], the half-inhibitory concentration (IC50) came to 0.3 µM; the “ratio R of the IC50 values” value was 13. Besides, the IC50 in data set [4] was found to be 4 µM.
The corresponding values for `CN(C)CCCNc1nc(Cc2ccccc2)c(-c2ccccc2)s1` [SR 45016 A] are 2 mg/kg, 0.1 µM, 55 and 5.5 µM.
On to `CNCCCNc1nc(-c2c(C)cc(C)cc2C)cs1` [SR 45030 A], for which the “Pirenzepine antagonism ED50 p.o.” value in data set [1] is reported as 1 mg/kg. Besides, in data set [3], the half-inhibitory concentration (IC50) is 1.6 µM; the “ratio R of the IC50 values” value is given as 50. Besides, the 50% inhibitory concentration (IC50) in data set [4] worked out at 80 µM.
